Reference: patent US6344562B1, “Thiazole derivatives” (Hoffmann-La Roche Inc., priority 1998, dated 2002)

| Compound | melting point |
| --- | --- |
| CC(C)(C)OC(=O)C[C@H](NC(=O)CNC(=O)c1csc(NC(=O)NCc2ccccc2)n1)C(=O)Nc1ccccc1C(=O)OC(C)(C)C [Example 135, tert-butyl (S)-2-[2-[2-[[2-(3-benzyl-ureido)-thiazole-4-carbonyl]-amino]-acetylamino]-3-tert-butoxycarbonyl-propionylamino]-benzoate] | 116 °C |
| O=C(O)C[C@H](NC(=O)CNC(=O)c1csc(NC(=O)NCc2ccccc2)n1)C(=O)Nc1ccccc1C(=O)O [Example 136, (S)-2-[2-(2-{[2-(3-benzyl-ureido)-thiazole-4-carbonyl]-amino}-acetylamino)-3-carboxy-propionylamino]-benzoic acid] | 192 °C |
| CC(C)[C@H](NC(=O)[C@H](CC(=O)OC(C)(C)C)NC(=O)CNC(=O)c1csc(NC(=O)NCc2ccccc2)n1)C(=O)OC(C)(C)C [Example 141, tert-butyl (S)-2-[(S)-2-[2-[[2-(3-benzyl-ureido)-thiazole-4-carbonyl]-amino]-acetylamino]-3-tert-butoxycarbonyl-propionylamino]-3-methyl-butyrate] | 108 to 111 °C |
| COC(=O)[C@H](CCCCNC(=O)c1csc(NC(=O)NCc2ccccc2)n1)NC(=O)OC(C)(C)C [Example 145, methyl (S)-6-{[2-(3-benzyl-ureido)-thiazole-4-carbonyl]-amino}-2-tert-butoxycarbonylamino-hexanoate] | 166 °C |
| CC(C)(C)OC(=O)N[C@@H](CCCCNC(=O)c1csc(NC(=O)NCc2ccccc2)n1)C(=O)O [Example 146, (S)-6-{[2-(3-benzyl-ureido)-thiazole-4-carbonyl]-amino}-2-tert-butoxycarbonylamino-hexanoic acid] | 138 °C |
| CC(C)(C)OC(=O)C[C@H](NC(=O)CNC(=O)c1csc(NC(=O)NCc2ccccc2)n1)C(=O)NCc1ccccn1 [Example 161, tert-butyl (S)-3-[2-[[2-(3-benzyl-ureido)-thiazole-4-carbonyl]-amino]-acetylamino]-N-pyridin-2-ylmethyl-succinamate] | 108 °C |
| CC(C)(C)OC(=O)C[C@H](NC(=O)CNC(=O)c1csc(NC(=O)NCc2ccccc2)n1)C(=O)NCc1cccnc1 [Example 163, tert-butyl (S)-3-[2-[[2-(3-benzyl-ureido)-thiazole-4-carbonyl]-amino]-acetylamino]-N-pyridin-3-ylmethyl-succinamate] | 185 °C |
| CC(C)(C)OC(=O)N[C@H](Cc1ccc(NC(=O)c2csc(NC(=O)NCc3ccccc3)n2)cc1)C(=O)O [Example 166, (R)-3-[4-[[2-(3-benzyl-ureido)-thiazole-4-carbonyl]-amino]-phenyl]-2-tert-butoxycarbonylamino-propionic acid] | 232 °C |
| CC(C)(C)OC(=O)C[C@H](NC(=O)CNC(=O)c1csc(NC(=O)NCc2ccccn2)n1)C(=O)NCc1ccccn1 [Example 167, tert-butyl (S)-N-pyridin-2-ylmethyl-3-(2-{[2-(3-pyridin-2-ylmethyl-ureido)-thiazole-4-carbonyl]-amino}-acetylamino)-succinamate] | 112 °C |
| O=C(O)C[C@H](NC(=O)CNC(=O)c1csc(NC(=O)NCc2ccccn2)n1)C(=O)NCc1ccccn1 [Example 168, (S)-N-pyridin-2-ylmethyl-3-(2-{[2-(3-pyridin-2-ylmethyl-ureido)-thiazole-4-carbonyl]-amino}-acetylamino)-succinamic acid] | 164 °C |

Further lines, results first:

| melting point | Compound |
| --- | --- |
| 187 °C | CCOC(=O)CCNC(=O)CNC(=O)c1csc(NC(=O)NCc2ccccc2)n1 [Example 131, ethyl 3-[2-[[2-(3-benzyl-ureido)-thiazole-4-carbonyl]-amino]-acetylamino]-propionate] |
| 185 °C | COc1cccc(NC(=O)[C@H](CC(=O)O)NC(=O)CNC(=O)c2csc(NC(=O)NCc3ccccc3)n2)c1 [Example 134, (S)-3-[2-[[2-(3-benzyl-ureido)-thiazole-4-carbonyl]-amino]-acetylamino]-N-(3-methoxy-phenyl)-succinamic acid] |
| 140 °C | COC(=O)CCCCCNC(=O)c1csc(NC(=O)NCc2ccccc2)n1 [Example 137, methyl 6-{[2-(3-benzyl-ureido)-thiazole-4-carbonyl]-amino}-hexanoate] |
| 178 °C | O=C(O)CCCCCNC(=O)c1csc(NC(=O)NCc2ccccc2)n1 [Example 138, 6-{[2-(3-benzyl-ureido)-thiazole-4-carbonyl]-amino}-hexanoic acid] |
| 194 °C | CCOC(=O)CCc1ccc(NC(=O)c2csc(NC(=O)NCc3ccccc3)n2)cc1 [Example 153, ethyl 3-[4-[[2-(3-benzyl-ureido)-thiazole-4-carbonyl]-amino]-phenyl]-propionate] |
| 233 °C | O=C(O)CCc1ccc(NC(=O)c2csc(NC(=O)NCc3ccccc3)n2)cc1 [Example 154, 3-[4-[[2-(3-benzyl-ureido)-thiazole-4-carbonyl]-amino]-phenyl]-propionic acid] |
| 212 °C | CC(C)(C)OC(=O)CCNC(=O)c1cccc(NC(=O)c2csc(NC(=O)NCc3ccccc3)n2)c1 [Example 169, tert-butyl 3-(3-{[2-(3-benzyl-ureido)-thiazole-4-carbonyl]-amino}-benzoylamino)-propionate] |
| 157 °C | O=C(O)CCNC(=O)c1cccc(NC(=O)c2csc(NC(=O)NCc3ccccc3)n2)c1 [Example 170, 3-(3-{[2-(3-benzyl-ureido)-thiazole-4-carbonyl]-amino}-benzoylamino)-propionic acid] |
